TGI data for 13 compounds are collected here from PubChem BioAssay (NCI).

What all share (experiment): growth of human tumour cells (NCI), 48 h
Assay [1] deals with EKVX NSCLC.
In assay [2] the test system is HT29 colon.
Assay [3] concerns NCI/ADR-RES ovarian.
Assay [4] has as its system OVCAR-8 ovarian.
Assay [5] deals with RXF 393 renal.
The subject of assay [6] is SF-539 CNS.
In assay [7] the test system is SK-MEL-28 melanoma.
Assay [8] deals with SK-OV-3 ovarian.
In assay [9] the test system is SN12C renal.
The test system of assay [10] is SNB-19 CNS.

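Assay format: 96-well plates, 48-hour exposure. The concentration for full growth arrest is given as TGI.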 Where a SMILES comes first, the peptide text is derived from it. Peptide text beside a SMILES is read from it. [ ]: non-standard residue; d: D form. The star is where a group is joined. * marks the point of attachment. Phe(4-NO2) = N[CH](Cc1ccc([N+](=O)[O-])cc1)C(=O)O; Boc = CC(C)(C)OC(=O)*; OtBu = CC(C)(C)O* A value given as a limit tells only on which side of the number the result lay.

On to `c1csc(-c2ccc(-c3ccc(-c4cccs4)s3)s2)c1`, for which the TGI in assay [1], in [2], in assay [3], in [4], in [5] and in assay [6] was greater than 100 µM throughout. The TGI in assay [7], in [8], in [9] and in assay [10] was greater than 100 µM throughout.
Consider `COc1cc2c(cc1OC)C1Cc3ccccc3CN1CCC2` (stereo not given), for which the TGI in assay [1], in [2], in assay [3], in [4], in assay [5] and in assay [6] was greater than 100 µM throughout. Further, the TGI in assay [7], in assay [8], in assay [9] and in [10] was greater than 100 µM in each case.
`O=C1N2CCc3c([nH]c4ccccc34)C23CC2CCCC12S3` (stereo not given): the TGI in assay [1] is greater than 50 µM; in [2], greater than 50 µM; in assay [3] it was 43.9 µM; in assay [4], greater than 50 µM; in assay [5] it was greater than 50 µM; in [6], greater than 50 µM. Besides, the TGI in assay [7], in assay [8], in assay [9] and in assay [10] was greater than 50 µM in each case.
Take `COc1cc([C@@H]2c3cc4c(cc3[C@@H](Nc3ccc(Cl)cc3C(=O)c3ccccc3Cl)[C@H]3COC(=O)[C@H]23)OCO4)cc(OC)c1OC`: the TGI in assay [1] is greater than 100 µM; in [2], greater than 100 µM; in assay [3], greater than 37.7 µM; in [4], greater than 36.2 µM; in assay [5], greater than 75.3 µM; in assay [6], 0.198 µM. In addition, the TGI in assay [7] was 34 µM; in assay [8], greater than 100 µM; in assay [9], greater than 100 µM; in assay [10], 76.1 µM.
Regarding `CSCCC(NC(=O)C(CC(C)C)NC(=O)CNC(=O)OC(C)(C)C)C(=O)N(C)C` (stereo not drawn) (Boc-Gly-Leu-Met-NMe2; configuration not given here), the TGI in assay [1], in assay [2], in assay [3], in assay [4], in assay [5] and in assay [6] was greater than 100 µM each time. The TGI in [7], in assay [8], in [9] and in [10] was greater than 100 µM throughout.
Turning to `O=C(Nc1ccccc1)N1N=C(c2ccccc2)C1c1ccccc1` (stereo not given), the TGI in [1] was greater than 100 µM; in assay [2], 39.8 µM; in assay [3], 82.2 µM; in assay [4] it was greater than 100 µM; in assay [5], 44.5 µM; in assay [6], 34.5 µM. Moreover, the TGI in assay [7], in assay [8], in assay [9] and in assay [10] was greater than 100 µM throughout.
Turning to `CCOC(=O)Cc1nc2c(=O)[nH]cnc2n1C1OC(COC(C)=O)C(OC(C)=O)C1OC(C)=O` (stereo not given), the TGI in [1], in [2], in [3], in [4], in assay [5] and in assay [6] was greater than 100 µM in each case. Also, the TGI in assay [7], in assay [8], in [9] and in assay [10] was greater than 100 µM each time.
Consider `CN(Cc1nc2c(N)nc(N)nc2nc1N)c1ccc(C(=O)NC(CCC(=O)O)C(=O)O)cc1` (stereo not given), for which the TGI in assay [1], in [2], in [3], in assay [4], in [5] and in assay [6] was greater than 100 µM each time. Moreover, the TGI in assay [7], in [8], in assay [9] and in assay [10] was greater than 100 µM throughout.
With `COC(=O)C(Cc1ccc([N+](=O)[O-])cc1)NC(=O)C(CC(=O)OC(C)(C)C)NC(=O)OC(C)(C)C` (stereo not given) (Boc-Asp(OtBu)-[Phe(4-NO2)]-OMe; configuration not given here), the TGI in assay [1], in [2], in assay [3], in [4], in assay [5] and in [6] was greater than 100 µM each time. The TGI in [7] was 57.4 µM; in assay [8], greater than 100 µM; in [9] it was greater than 100 µM; in assay [10], greater than 100 µM.
For `O=C(O)c1ccc(Nc2cnc3ccc(C(F)(F)F)cc3n2)cc1`, the TGI in [1] is greater than 100 µM; in [2] it was 33.6 µM; in assay [3] it was greater than 100 µM; in assay [4], 41.2 µM; in assay [5] it was 35.3 µM; in assay [6] it was 58.2 µM. In addition, the TGI in assay [7] is greater than 100 µM; in [8] it was greater than 100 µM; in [9], 90.2 µM; in assay [10] it was 33.7 µM.
In the case of `N#Cc1nnc2c3c(-c4ccc(Cl)cc4)c(C#N)c(=O)[nH]c3nn2c1N`, the TGI in assay [1] was 30.9 µM; in [2], 21.2 µM; in assay [3], 54.9 µM; in [4] it was 14 µM; in assay [5], 14.9 µM; in assay [6], 12.5 µM. Besides, the TGI in assay [7] stood at 44.5 µM; in assay [8] it was 18.2 µM; in assay [9] it was 6.37 µM; in [10], 19.5 µM.
With `COc1ccc(-c2c(C(C)=O)c(C)n(C3OC(CO)C(O)C(O)C3O)c(=S)c2C#N)cc1` (stereo not given), the TGI in assay [1], in [2], in assay [3], in assay [4], in [5] and in assay [6] was greater than 100 µM each time. Moreover, the TGI in assay [7] is greater than 100 µM; in assay [8], greater than 100 µM; in assay [9] it was greater than 100 µM; in assay [10], 33.6 µM.
Consider `O=C(NCCCCl)c1c(O)c2ccccc2[nH]c1=O`, for which the TGI in assay [1] is greater than 100 µM; in [2], greater than 100 µM; in assay [3] it was greater than 100 µM; in assay [4] it was greater than 100 µM; in assay [5] it was greater than 71.5 µM; in assay [6] it was greater than 100 µM. Besides, the TGI in assay [7], in [8], in assay [9] and in assay [10] was greater than 100 µM each time.
